Results on 1 compound are retold here after patent US20070274907A1 (priority 2004, published 2007).

A short description of data set [1]: Mitomycin binding kinetics to magnetically targetable carrier particle. The data set is classed as physicochemical. The conditions noted are these: for initial mitomycin remaining in the binding supernatant: 5 minutes, 25 mg carrier, 0.755 mg/mL mitomycin. The method, then: Mitomycin binding kinetics was measured at room temperature, and 40° C. […] The mixture was incubated at room temperature and at 40° C. for various time periods up to 60 minutes. The concentration of mitomycin remaining in the binding supernatant was obtained by filtering the sample at a predefined time point and then analyzing by HPLC to determine percentage bound.

The next data set concerns swine. Put plainly: 28 day toxicity study, pulmonary artery delivery with magnetic targeting. As to the method:
Each animal received a single dose of either control or test article at fixed concentrations by pulmonary artery infusion. […] The vehicle control group received 16 mL of vehicle.
A test article was administered as a single infusion to Groups 1 and 2 and as two infusions in all other groups. A 15 minute magnetic retention period separated the two infusions in Groups 3 and 4. The infusion rate was maintained at a flow rate of 2 mL/min. At the end of the 15 minute magnetic retention period, an angiogram was performed to verify arterial patency in the selected lung lobe. Assessment of toxicity following treatment included laboratory tests in which blood samples were collected for evaluation of serum chemistry, hematology and coagulation parameters prior to dosing (Day 0) and post-dosing on Days 1, 3, 7, 14, 21 and 28.

Data set [2] relates to squamous cell carcinoma of the lung. The following applies: 10 mg MMC intra-arterially, after 28 to 48 days, 9 patients; cited from earlier work.
For another data set, the system named is bronchogenic carcinoma. The following applies: 39 patients; cited from earlier work.
Data set [3] deals with squamous cell carcinoma or adenocarcinoma. The conditions noted are these: full series of 4 treatments, 10 mg MMC each, bronchial artery; cited from earlier work.
The nature of data set [4]: Toxicokinetic analysis of plasma MMC after pulmonary artery infusion.

By Cmax is commonly meant the peak of the concentration-time curve. The term Vd denotes a proportionality between amount in the body and measured concentration, not a real space. Lower therefore signals little distribution into tissue. In general, clearance refers to the rate of elimination divided by the concentration. Low readings indicate a low capacity for elimination, high ones a high capacity for elimination. What is called half-life is the time needed for the level to fall by half in the phase considered. A low value points to fast loss. Consider `CO[C@@]12[C@H](COC(N)=O)C3=C(C(=O)C(C)=C(N)C3=O)N1C[C@@H]1N[C@@H]12` [MMC, Mitomycin C], for which, in data set [1] (40° C), the “initial mitomycin remaining in the binding supernatant” value worked out at 3%. For the same compound, the “initial mitomycin remaining in the binding supernatant” value in data set [1] (room temperature) was found to be 2%. Besides, the “time to adsorption equilibrium” value in data set [1] (both room temperature and 40° C) was “less than 5 minutes”. Besides, in data set [1] (room temperature and 40° C, up to 60 minutes), the “stability of mitomycin solution during incubation” value is “stable at both temperatures”. In addition, in the data set on swine (28 days post-dosing, not dose-related), the stomach ulceration entry is “stomach ulceration was seen in some animals”. Moreover, the clinical signs entry in the data set with swine (MMC alone group, 4 mg MMC) is reported as “transient diarrhea in two animals”. In the data set on swine (MMC control, 4 mg MMC), the “embolization (post-treatment angiography)” value is recorded as “no embolization”. Moreover, in data set [2], the “complete remission of the tumor, patients” value is listed as 2 patients and the “partial remission, patients” value is 2 patients. Further, in the data set with bronchogenic carcinoma, the neurologic complications result is “No neurologic complications occurred” and the side effects result is recorded as “insignificant”. For the same compound, in data set [3], the “patients with a 20% to 50% decrease of the tumor area” value is listed as 3 patients and the “patients with a 50% decrease of the tumor area” value is 5 patients. In data set [4] (Yorkshire, pig, in vivo, 4 mg), this compound gave a Cmax of 178 ± 27.1 ng/mL, a Vd of 47.3 ± 13.2 L and a clearance of 618 ± 54 mL/min. For the same compound, the half-life in data set [4] (Yorkshire, pig, in vivo, 4 mg, β or λ t1/2, swine, 4 mg MMC) was found to be 1.12 ± 0.278 h. In data set [4] (Yorkshire, swine, in vivo, distribution half-life, swine, summary over dose groups), the half-life was approximately 0.133 h. This compound displayed a half-life in data set [4] (Yorkshire, swine, in vivo, elimination half-life, swine, summary over dose groups) of approximately 1.08 h. Moreover, the AUC in data set [4] (swine, 4 mg MMC, pulmonary artery infusion, plasma MMC) was 6507 ± 568 (ng/ml) × min.
